Values after ≈ are worked out from the molar mass of the structure shown.
Legend:
Assay type in all cases: functional
Pseudomonas aeruginosa [1] = experiment: Antibacterial activity against mexA deficient Pseudomonas aeruginosa TNP070
Pseudomonas aeruginosa [2] = experiment: Antibacterial activity against Pseudomonas aeruginosa PAO4290 harboring leu-10 argF10 aph-9004 FP(-)
Pseudomonas aeruginosa [3] = experiment: Antibacterial activity against mexA deficient Pseudomonas aeruginosa TNP070 transformant harboring pMEXA1 carrying wild type mexA gene
Pseudomonas aeruginosa [4] = experiment: Antibacterial activity against mexA deficient Pseudomonas aeruginosa TNP070 transformant harboring pPlcMexA carrying chimeric mexA gene with plcH signal sequence
Pseudomonas aeruginosa [5] = experiment: Antibacterial activity against tatC deficient Pseudomonas aeruginosa TNP080
Pseudomonas aeruginosa [6] = experiment: Antibacterial activity against tatC deficient Pseudomonas aeruginosa TNP080 transformant harboring pMEXA1 carrying wild type mexA gene
Pseudomonas aeruginosa [7] = experiment: Antibacterial activity against tatC deficient Pseudomonas aeruginosa TNP080 transformant harboring pPlcMexA carrying chimeric mexA gene with plcH signal sequence
Pseudomonas aeruginosa [8] = experiment: Antibacterial activity against tatC deficient Pseudomonas aeruginosa TNP080 transformant harboring pTatPlcMexA carrying entire tatC gene and the chimeric mexA gene

## C[C@H]1[C@H](NC(=O)/C(=N\OC(C)(C)C(=O)O)c2csc(N)n2)C(=O)N1S(=O)(=O)O [AZTREONAM]
Pseudomonas aeruginosa [1]
  MIC: 0.25 µg/mL (≈ 0.574 µM)
Pseudomonas aeruginosa [2]
  MIC: 4 µg/mL (≈ 9.19 µM)
Pseudomonas aeruginosa [3]
  MIC: 2 µg/mL (≈ 4.59 µM)
Pseudomonas aeruginosa [4]
  MIC: 2 µg/mL (≈ 4.59 µM)
Pseudomonas aeruginosa [5]
  MIC: 0.13 µg/mL (≈ 0.299 µM)
Pseudomonas aeruginosa [6]
  MIC: 2 µg/mL (≈ 4.59 µM)
Pseudomonas aeruginosa [7]
  MIC: 0.25 µg/mL (≈ 0.574 µM)
Pseudomonas aeruginosa [8]
  MIC: 2 µg/mL (≈ 4.59 µM)

## O=C(N[C@H](CO)[C@H](O)c1ccc([N+](=O)[O-])cc1)C(Cl)Cl [CHLORAMPHENICOL]
Pseudomonas aeruginosa [1]
  MIC: 8 µg/mL (≈ 24.8 µM)
Pseudomonas aeruginosa [2]
  MIC: 64 µg/mL (≈ 198 µM)
Pseudomonas aeruginosa [3]
  MIC: 32 µg/mL (≈ 99 µM)
Pseudomonas aeruginosa [4]
  MIC: 32 µg/mL (≈ 99 µM)
Pseudomonas aeruginosa [5]
  MIC: 4 µg/mL (≈ 12.4 µM)
Pseudomonas aeruginosa [6]
  MIC: 32 µg/mL (≈ 99 µM)
Pseudomonas aeruginosa [7]
  MIC: 4 µg/mL (≈ 12.4 µM)
Pseudomonas aeruginosa [8]
  MIC: 32 µg/mL (≈ 99 µM)

Source: ChEMBL document CHEMBL1255411, “Tat pathway-mediated translocation of the sec pathway substrate protein MexA, an inner membrane component of the MexAB-OprM xenobiotic extrusion pump in Pseudomonas aeruginosa” (2010)
